The source made the active and inactive calls.
Tests used:
Caspase-6 = biological target: T1, Caspase-6 (Homo sapiens, UniProt P55212); experiment: inhibition of CASP6 peptide cleavage – biochemical, VEID-R110 fluorescence, cherry-pick, dose response (AID 720632)
T1 sequence (P55212 whole entry): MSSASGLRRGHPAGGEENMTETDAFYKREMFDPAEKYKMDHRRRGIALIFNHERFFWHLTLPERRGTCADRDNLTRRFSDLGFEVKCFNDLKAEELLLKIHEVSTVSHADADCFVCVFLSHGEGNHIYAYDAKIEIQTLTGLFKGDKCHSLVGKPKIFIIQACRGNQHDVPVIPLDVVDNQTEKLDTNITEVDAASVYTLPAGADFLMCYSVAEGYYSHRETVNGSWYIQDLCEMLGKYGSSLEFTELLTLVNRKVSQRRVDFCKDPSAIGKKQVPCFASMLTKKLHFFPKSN

Hexokinase HKDC1 = biological target: T2, Hexokinase HKDC1 (Homo sapiens, UniProt Q2TB90); experiment: SAR analysis of small molecule inhibitors of hexokinase domain containing I (HKDC1). [Related pubchem assays (depositor defined):AID493160, AID493190]; format: functional
T2 sequence (Q2TB90 whole entry): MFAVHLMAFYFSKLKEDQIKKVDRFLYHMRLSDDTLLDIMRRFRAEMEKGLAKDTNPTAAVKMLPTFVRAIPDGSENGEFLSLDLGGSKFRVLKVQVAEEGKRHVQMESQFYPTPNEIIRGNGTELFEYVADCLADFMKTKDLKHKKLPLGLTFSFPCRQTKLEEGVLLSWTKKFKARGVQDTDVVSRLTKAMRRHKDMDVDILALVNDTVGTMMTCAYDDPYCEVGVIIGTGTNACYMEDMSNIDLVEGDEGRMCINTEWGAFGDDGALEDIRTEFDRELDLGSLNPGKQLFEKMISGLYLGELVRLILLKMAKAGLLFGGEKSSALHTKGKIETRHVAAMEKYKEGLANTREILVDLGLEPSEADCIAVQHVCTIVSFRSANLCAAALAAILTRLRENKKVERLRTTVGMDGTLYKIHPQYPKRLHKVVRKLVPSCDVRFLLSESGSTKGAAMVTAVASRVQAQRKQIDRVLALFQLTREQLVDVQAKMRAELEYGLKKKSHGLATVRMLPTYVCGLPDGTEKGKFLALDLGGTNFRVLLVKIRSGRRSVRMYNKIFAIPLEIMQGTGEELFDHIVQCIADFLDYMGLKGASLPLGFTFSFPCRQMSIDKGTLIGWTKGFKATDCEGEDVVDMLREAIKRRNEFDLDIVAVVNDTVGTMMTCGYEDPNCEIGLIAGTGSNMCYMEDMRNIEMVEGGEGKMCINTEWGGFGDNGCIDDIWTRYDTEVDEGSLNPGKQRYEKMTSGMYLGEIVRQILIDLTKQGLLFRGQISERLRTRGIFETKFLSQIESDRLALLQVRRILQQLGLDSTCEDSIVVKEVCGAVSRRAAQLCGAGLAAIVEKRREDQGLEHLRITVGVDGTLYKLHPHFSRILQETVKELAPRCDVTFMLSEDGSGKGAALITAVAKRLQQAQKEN

[1] = blockers of CAL PDZ ligand groove binding – biochemical, fluorescence polarization, untagged CAL PDZ, cherry-pick, dose response (AID 602267); format: functional
[2] = biological target: Histone-lysine N-methyltransferase NSD2 (Homo sapiens, UniProt O96028); format: biochemical
Chain of Histone-lysine N-methyltransferase NSD2 (O96028 whole entry): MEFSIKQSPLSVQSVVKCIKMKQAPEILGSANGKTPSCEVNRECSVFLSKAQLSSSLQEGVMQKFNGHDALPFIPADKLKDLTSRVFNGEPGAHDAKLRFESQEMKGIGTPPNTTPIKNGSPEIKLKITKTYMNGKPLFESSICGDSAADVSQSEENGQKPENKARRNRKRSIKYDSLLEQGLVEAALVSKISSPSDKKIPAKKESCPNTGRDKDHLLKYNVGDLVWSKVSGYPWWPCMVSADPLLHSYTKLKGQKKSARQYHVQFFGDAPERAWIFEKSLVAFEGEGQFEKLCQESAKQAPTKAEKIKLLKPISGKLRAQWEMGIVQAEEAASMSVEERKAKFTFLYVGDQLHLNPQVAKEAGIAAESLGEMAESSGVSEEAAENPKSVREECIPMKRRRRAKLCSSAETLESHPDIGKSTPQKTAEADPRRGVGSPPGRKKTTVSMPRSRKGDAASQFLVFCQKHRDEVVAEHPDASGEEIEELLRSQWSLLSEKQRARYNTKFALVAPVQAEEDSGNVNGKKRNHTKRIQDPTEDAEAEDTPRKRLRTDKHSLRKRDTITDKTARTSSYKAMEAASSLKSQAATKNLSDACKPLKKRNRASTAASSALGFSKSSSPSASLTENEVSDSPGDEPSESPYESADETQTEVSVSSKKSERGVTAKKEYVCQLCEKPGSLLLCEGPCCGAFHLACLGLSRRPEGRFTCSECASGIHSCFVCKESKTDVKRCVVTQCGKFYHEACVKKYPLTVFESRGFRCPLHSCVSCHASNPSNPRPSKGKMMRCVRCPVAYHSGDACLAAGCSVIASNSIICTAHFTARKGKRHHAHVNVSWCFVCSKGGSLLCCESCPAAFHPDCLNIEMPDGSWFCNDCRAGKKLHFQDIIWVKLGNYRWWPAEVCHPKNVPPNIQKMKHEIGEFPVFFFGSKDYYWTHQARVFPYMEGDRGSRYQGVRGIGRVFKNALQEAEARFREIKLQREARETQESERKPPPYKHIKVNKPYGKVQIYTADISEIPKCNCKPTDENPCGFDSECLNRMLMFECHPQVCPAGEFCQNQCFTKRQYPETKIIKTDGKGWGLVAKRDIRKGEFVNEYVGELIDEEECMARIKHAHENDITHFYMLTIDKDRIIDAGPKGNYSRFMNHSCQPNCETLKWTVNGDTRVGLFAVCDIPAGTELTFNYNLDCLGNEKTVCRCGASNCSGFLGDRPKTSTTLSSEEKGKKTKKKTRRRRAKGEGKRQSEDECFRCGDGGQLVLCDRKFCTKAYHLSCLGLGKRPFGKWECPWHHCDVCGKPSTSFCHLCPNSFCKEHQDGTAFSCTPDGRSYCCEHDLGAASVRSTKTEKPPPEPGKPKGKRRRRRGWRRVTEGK

[3] = biological target: T3, C-C chemokine receptor type 6 (Homo sapiens, UniProt P51684); experiment: antagonism of CCR6 beta-arrestin recruitment – cell-based, luminescent beta-arrestin readout, dose response (AID 504728); format: functional
T3 sequence (P51684 whole entry): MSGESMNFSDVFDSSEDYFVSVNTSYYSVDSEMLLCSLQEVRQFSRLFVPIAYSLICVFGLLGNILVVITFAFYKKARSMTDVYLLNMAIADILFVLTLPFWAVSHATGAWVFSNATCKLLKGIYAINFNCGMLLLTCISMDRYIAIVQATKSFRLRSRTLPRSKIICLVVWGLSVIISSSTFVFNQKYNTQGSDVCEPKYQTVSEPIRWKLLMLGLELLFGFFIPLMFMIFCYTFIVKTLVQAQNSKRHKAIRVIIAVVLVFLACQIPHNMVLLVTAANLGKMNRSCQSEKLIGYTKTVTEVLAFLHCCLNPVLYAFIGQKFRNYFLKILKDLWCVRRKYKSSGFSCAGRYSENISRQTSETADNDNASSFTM

[4] = test system: Streptococcus sp. 'group A'; experiment: Streptococcus pyogenes SK(-)GAS viability under kanamycin – luminescence, BacTiterGlo, confirmation, counter-screen for streptokinase expression inhibitor project, dose response (AID 1900); format: functional, organism-based
Streptococcus = experiment: GAS UMAA2166 growth inhibition – luminescence, BacTiterGlo, counter-screen for streptokinase expression inhibitor project, dose response (AID 1915); format: functional, organism-based;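 note: potency for reduction of bacterial viability or growth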
[5] = biological target: T4, Heat shock factor protein 1 (Mus musculus, UniProt P38532); experiment: decrease of HSF1-responsive luciferase luminescence – cell-based, NIH3T3, dose retest, confirmation (AID 2382); format: functional;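 note: NIH3T3 fibroblasts with HSF1-driven luciferase reporter stressed by proteasome inhibitor MG132; luminescence from HSF1-driven luciferase expression after 8 hours of MG132 stress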
T4 sequence (P38532 whole entry): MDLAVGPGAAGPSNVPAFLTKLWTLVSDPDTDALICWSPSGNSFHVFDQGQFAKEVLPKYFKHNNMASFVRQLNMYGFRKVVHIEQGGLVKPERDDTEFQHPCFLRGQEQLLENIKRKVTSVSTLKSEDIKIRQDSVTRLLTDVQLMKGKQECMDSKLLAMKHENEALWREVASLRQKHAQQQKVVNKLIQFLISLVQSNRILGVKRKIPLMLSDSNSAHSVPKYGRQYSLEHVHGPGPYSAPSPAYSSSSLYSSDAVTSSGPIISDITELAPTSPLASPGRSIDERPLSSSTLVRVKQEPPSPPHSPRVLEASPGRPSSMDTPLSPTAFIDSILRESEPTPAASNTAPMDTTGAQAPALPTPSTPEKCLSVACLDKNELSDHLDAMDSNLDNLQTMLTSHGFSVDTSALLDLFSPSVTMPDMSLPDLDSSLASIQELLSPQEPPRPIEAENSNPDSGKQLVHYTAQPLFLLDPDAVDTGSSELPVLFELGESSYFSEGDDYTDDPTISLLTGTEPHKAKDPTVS

[6] = viability of uninfected HEp-2 cells – cell-based, HTS, cytotoxicity control for RSV inhibitor project, dose response (AID 2410); format: functional; details: human respiratory syncytial virus
[7] = Trypanosoma cruzi growth suppression in host cells – NIH3T3 host cells, beta-gal luminescence, confirmation (AID 2044); format: functional, cell-based;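 note: intracellular parasites grown in NIH/3T3 mouse fibroblasts as host cells; luminescent beta-galactosidase reporter signal from transgenic T. cruzi replicating inside host cells; inhibitors lower the luminescence signal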
Genome polyprotein = Genome polyprotein (dengue virus type 2, UniProt P29990); experiment: flavivirus cap methylation enzyme inhibition – biochemical, confirmation dose response, primary screen (AID 588689); format: functional
Chain of Genome polyprotein (P29990 2492-3391 limits assumed): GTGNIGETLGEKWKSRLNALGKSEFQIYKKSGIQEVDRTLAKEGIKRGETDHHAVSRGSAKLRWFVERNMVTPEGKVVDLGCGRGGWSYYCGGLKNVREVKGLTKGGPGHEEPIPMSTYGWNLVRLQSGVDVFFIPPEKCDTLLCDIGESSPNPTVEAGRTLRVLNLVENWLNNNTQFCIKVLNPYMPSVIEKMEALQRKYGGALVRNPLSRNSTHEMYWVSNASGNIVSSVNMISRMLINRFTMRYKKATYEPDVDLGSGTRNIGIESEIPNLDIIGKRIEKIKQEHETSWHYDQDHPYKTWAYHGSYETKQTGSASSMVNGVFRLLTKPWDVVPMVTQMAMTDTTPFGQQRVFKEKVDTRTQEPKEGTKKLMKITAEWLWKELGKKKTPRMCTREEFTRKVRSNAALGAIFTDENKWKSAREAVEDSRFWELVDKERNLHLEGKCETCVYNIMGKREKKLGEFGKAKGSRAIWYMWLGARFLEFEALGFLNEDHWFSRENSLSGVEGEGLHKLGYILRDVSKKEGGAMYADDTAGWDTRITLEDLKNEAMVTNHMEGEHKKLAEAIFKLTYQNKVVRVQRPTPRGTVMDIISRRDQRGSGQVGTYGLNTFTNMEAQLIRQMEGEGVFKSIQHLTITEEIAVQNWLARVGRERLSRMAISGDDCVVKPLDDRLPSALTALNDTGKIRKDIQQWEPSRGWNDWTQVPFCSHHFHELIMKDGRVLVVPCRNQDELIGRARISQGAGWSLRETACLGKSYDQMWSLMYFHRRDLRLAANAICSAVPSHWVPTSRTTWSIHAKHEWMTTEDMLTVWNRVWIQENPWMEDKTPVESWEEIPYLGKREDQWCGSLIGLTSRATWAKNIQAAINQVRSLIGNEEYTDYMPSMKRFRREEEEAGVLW

[8] = biological target: Tyrosyl-DNA phosphodiesterase 2 (Homo sapiens, UniProt O95551); experiment: potency against TDP2 phosphodiesterase activity – biochemical, epi absorbance, IC50, dose response (AID 743297)
Chain of Tyrosyl-DNA phosphodiesterase 2 (O95551 whole entry): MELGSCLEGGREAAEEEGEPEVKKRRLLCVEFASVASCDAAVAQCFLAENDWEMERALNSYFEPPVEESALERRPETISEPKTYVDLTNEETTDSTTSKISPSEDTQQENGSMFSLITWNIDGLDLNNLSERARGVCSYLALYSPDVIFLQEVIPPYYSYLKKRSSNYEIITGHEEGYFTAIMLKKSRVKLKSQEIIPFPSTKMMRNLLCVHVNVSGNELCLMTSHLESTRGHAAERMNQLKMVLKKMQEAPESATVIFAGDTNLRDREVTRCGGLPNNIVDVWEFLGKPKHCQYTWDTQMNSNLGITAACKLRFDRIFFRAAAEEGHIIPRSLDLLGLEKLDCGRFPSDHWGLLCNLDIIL

Vero = experiment: viability of Vero cells under compound – cytotoxicity control for flavivirus capping enzyme inhibitors (AID 588742); format: functional; details: Chlorocebus sabaeus
[9] = viability loss in THP-1 monocytes – THP-1 cells, cytotoxicity control for Vif-APOBEC3G degradation inhibitor project, dose response (AID 1117359); format: functional; details: THP-1

O=c1c2ccccc2nc(/C=C/c2cccnc2)n1Cc1ccccc1
AC50 (Caspase-6): 11.8 µM (active) | IC50 (Hexokinase HKDC1): > 80 µM (inactive) | AC50 [1]: 91.1 µM (active)

COC(=O)c1ccccc1NC1=C/C(=N\S(=O)(=O)c2ccc(C(=O)O)cc2)c2ccccc2C1=O
AC50 [2]: 0.557 µM (active) | IC50 [3]: > 66.6 µM (inactive)

O=C(O)c1ccc(N/N=C/c2ccc(OC(=O)c3ccccc3Cl)cc2)cc1
EC50 [4]: 2.91 µM (active) | EC50 (Streptococcus): 131 µM (active) | EC50 [5]: 0.167 µM (active)

NC(=O)C1CCN(C2=C(Cl)C(=O)c3ccccc3C2=O)CC1
CC50 [6]: 7.88 µM (active) | EC50 [7]: 2.18 µM (active) | IC50 (Genome polyprotein): 26 µM (active) | IC50 [8]: 13.6 µM (inactive) | CC50 (Vero): 22.3 µM (active) | CC50 [9]: 9.71 µM (active)

Source: ChEMBL document CHEMBL1201862, “PubChem BioAssay data set” (2004)
